Source: patent US6914045B2, “Glycopeptide antibiotics” (Wyeth Holdings Corporation, priority 2001, dated 2005)

Columns and labels:
Experiment in all cases: in vitro antibacterial evaluation, MIC by broth dilution
Format in all cases: cell-based
Staphylococcus sp. = conditions: broth dilution, 18 hours at 35° C.
Experimental: (§1) Methods for in vitro Antibacterial Evaluation (Table 1)
(§2) The minimum inhibitory concentration (MIC), the lowest concentration of the antibiotic which inhibits growth of the test organism, is determined by the broth dilution method using Muller-Hinton II […] (Baltimore Biological Laboratories) following the recommendations of the National Committee for Clinical Laboratory Standards [Methods for dilution antimicrobial susceptibility tests for bacteria that grow aerobically, approved standard M7-A2, National Committee for Clinical Laboratory Standards, Villanova, Pa.].
(§3) An inoculum level of 5×10^5 CFU/mL, and a range of antibiotic concentrations (64-0.06 μg/mL) is used. […] The test organisms include a spectrum of Gram-positive bacteria comprised of Staphylococcus sp., Streptococcus sp. and Enterococcus sp. These organisms include recent clinical isolates that are resistant to methicillin, penicillin and/or vancomycin.

Enterococcus sp. = conditions: broth dilution, 18 hours at 35° C.
Experimental: as §1, §2, §3

Streptococcus sp. = conditions: broth dilution, 18 hours at 35° C.
Experimental: as §1, §2, §3

Escherichia coli = conditions: 18 hours at 35° C.

CC(c1ccccc1)C1NC(=O)CNC(=O)C(CO)NC(=O)C(C(O)C2CNC(=N)N2C2OC(CO)C(O)C(O)C2O)NC(=O)C(C(O)C2CNC(=N)N2)NC(=O)C(Cc2ccc(OC3OC(CO)C(OC4OC5COC6(OC5C(O)C4O)C(C)CCCC6C)C(O)C3O)cc2)NC1=O (stereo not drawn) [Example 206]
1 µg/mL: MIC Staphylococcus aureus (ATCC 29213) (Staphylococcus sp.; strain ATCC 29213) | MIC Staphylococcus aureus (GC 1131) (Staphylococcus sp.; strain GC 1131) | MIC Staphylococcus aureus (GC 3051) (Staphylococcus sp.; strain GC 3051) | MIC Staphylococcus aureus (GC 3053) (Staphylococcus sp.; strain GC 3053) | MIC Staphylococcus aureus (GC 4541) (Staphylococcus sp.; strain GC 4541) | MIC Staphylococcus aureus (GC 4542) (Staphylococcus sp.; strain GC 4542) | MIC Staphylococcus aureus-SMITH (GC 4543) (Staphylococcus sp.; strain GC 4543) | MIC Staphylococcus aureus (GC 4544) (Staphylococcus sp.; strain GC 4544) | MIC Staphylococcus aureus (GC 4545) (Staphylococcus sp.; strain GC 4545) | MIC Coagulase Negative Staphylococcus (GC 4547) (Staphylococcus sp.; strain GC 4547) | MIC Coagulase Negative Staphylococcus (GC 4551) (Staphylococcus sp.; strain GC 4551) | MIC Enterococcus faecalis (ATCC 29212) (Enterococcus sp.) | MIC Enterococcus faecalis (GC 3059) (Enterococcus sp.) | MIC Enterococcus faecalis (GC 6189) (Enterococcus sp.) | MIC Enterococcus faecium (GC 4556) (Enterococcus sp.) | MIC Enterococcus faecalis (ATCC 29212) (Enterococcus sp.; inoculum 5×10^5 CFU/mL, strain ATCC 29212) | MIC Enterococcus faecalis (GC 3059) (Enterococcus sp.; inoculum 5×10^5 CFU/mL, strain GC 3059) | MIC Enterococcus faecium (GC 4556) (Enterococcus sp.; inoculum 5×10^5 CFU/mL, strain GC 4556) | MIC Enterococcus faecalis (GC 6189) (Enterococcus sp.; inoculum 5×10^5 CFU/mL, strain GC 6189) | MIC Streptococcus pyogenes (GC 4563) (Streptococcus sp.) | MIC Streptococcus pyogenes (GC 4563) (Streptococcus sp.; inoculum 5×10^5 CFU/mL, strain GC 4563) | MIC Escherichia coli (GC 4560) (Escherichia coli)
32 µg/mL: MIC Escherichia coli (ATCC 25922) (Escherichia coli) | MIC Escherichia coli (GC 4559) (Escherichia coli)
0.25 µg/mL: MIC Streptococcus agalactiae (GC 4564) (Streptococcus sp.) | MIC Streptococcus agalactiae (GC 4564) (Streptococcus sp.; inoculum 5×10^5 CFU/mL, strain GC 4564)
2 µg/mL: MIC Enterococcus avium (GC 4558) (Enterococcus sp.) | MIC Enterococcus faecalis (GC 2242) (Enterococcus sp.) | MIC Enterococcus faecalis (GC 2691) (Enterococcus sp.) | MIC Enterococcus faecalis (GC 4552) (Enterococcus sp.) | MIC Enterococcus faecalis (GC 4553) (Enterococcus sp.) | MIC Enterococcus faecalis (GC 4554) (Enterococcus sp.) | MIC Enterococcus faecium (GC 2243) (Enterococcus sp.) | MIC Enterococcus faecium (GC 4557) (Enterococcus sp.) | MIC Enterococcus faecalis (GC 2242) (Enterococcus sp.; inoculum 5×10^5 CFU/mL, strain GC 2242) | MIC Enterococcus faecium (GC 2243) (Enterococcus sp.; inoculum 5×10^5 CFU/mL, strain GC 2243) | MIC Enterococcus faecalis (GC 2691) (Enterococcus sp.; inoculum 5×10^5 CFU/mL, strain GC 2691) | MIC Enterococcus faecalis (GC 4552) (Enterococcus sp.; inoculum 5×10^5 CFU/mL, strain GC 4552) | MIC Enterococcus faecalis (GC 4553) (Enterococcus sp.; inoculum 5×10^5 CFU/mL, strain GC 4553) | MIC Enterococcus faecalis (GC 4554) (Enterococcus sp.; inoculum 5×10^5 CFU/mL, strain GC 4554) | MIC Enterococcus faecium (GC 4557) (Enterococcus sp.; inoculum 5×10^5 CFU/mL, strain GC 4557) | MIC Enterococcus avium (GC 4558) (Enterococcus sp.; inoculum 5×10^5 CFU/mL, strain GC 4558)
0.5 µg/mL: MIC Staphylococcus haemolyticus (GC 4546) (Staphylococcus sp.; strain GC 4546) | MIC Coagulase Negative Staphylococcus (GC 4548) (Staphylococcus sp.; strain GC 4548) | MIC Coagulase Negative Staphylococcus (GC 4549) (Staphylococcus sp.; strain GC 4549)
<0.12 µg/mL: MIC Streptococcus pneumoniae (ATCC 6301) (Streptococcus sp.) | MIC Streptococcus pneumoniae (GC 1894) (Streptococcus sp.) | MIC Streptococcus pneumoniae (GC 4565) (Streptococcus sp.) | MIC Streptococcus pneumoniae (ATCC 6301) (Streptococcus sp.; inoculum 5×10^5 CFU/mL, strain ATCC 6301) | MIC Streptococcus pneumoniae (GC 1894) (Streptococcus sp.; inoculum 5×10^5 CFU/mL, strain GC 1894) | MIC Streptococcus pneumoniae (GC 4565) (Streptococcus sp.; inoculum 5×10^5 CFU/mL, strain GC 4565)
